What was measured:
HeLa [1] = assay: Cytotoxicity against human HeLa cells after 7 days by MTT assay; format: functional, cell-based; conditions: 168 h
[2] = Cytotoxicity against human resting lymphocytes after 3 days by MTT assay; format: cell-based; conditions: Lymphocyte, 72 h
[3] = Cytotoxicity against phytohaemagglutinin-stimulated human lymphocytes after 3 days by MTT assay; format: cell-based; conditions: Lymphocyte, 72 h
Plasmodium falciparum [4] = assay: Resistance index, ratio of IC50 for chloroquine-resistant Plasmodium falciparum Dd2 to IC50 for chloroquine-sensitive Plasmodium falciparum D10; format: functional
HeLa [5] = assay: Tumor specificity, ratio of IC50 for human resting and phytohaemagglutinin-stimulated lymphocytes to IC50 for human HeLa cells
Plasmodium falciparum [6] = assay: Antiplasmodial activity against chloroquine-resistant Plasmodium falciparum Dd2; format: functional, organism-based
Plasmodium falciparum [7] = assay: Antiplasmodial activity against chloroquine-sensitive Plasmodium falciparum D10; format: functional, organism-based

C=CC(=O)O[C@@H]1O[C@@H]2O[C@@]3(C)CC[C@H]4[C@H](C)CC[C@@H]([C@H]1C)[C@@]24OO3
IC50 (HeLa [1]): 6370 nM
IC50 [2]: 39600 nM
IC50 [3]: 11500 nM
Ratio IC50 (Plasmodium falciparum [4]): 1.6
Ratio IC50 (HeLa [5]): 4
IC50 (Plasmodium falciparum [6]): 9.27 nM
IC50 (Plasmodium falciparum [7]): 5.85 nM

C[C@H]1[C@@H](OC(=O)CCNCCCCNc2ccnc3cc(Cl)ccc23)O[C@@H]2O[C@@]3(C)CC[C@H]4[C@H](C)CC[C@@H]1[C@@]24OO3
IC50 (HeLa [1]): 10100 nM
IC50 [2]: 32400 nM
IC50 [3]: 8990 nM
Ratio IC50 (Plasmodium falciparum [4]): 1.1
Ratio IC50 (HeLa [5]): 2
IC50 (Plasmodium falciparum [6]): 27.5 nM
IC50 (Plasmodium falciparum [7]): 24 nM

CCN(CC)CCC(=O)O[C@@H]1O[C@@H]2O[C@@]3(C)CC[C@H]4[C@H](C)CC[C@@H]([C@H]1C)[C@@]24OO3
IC50 (HeLa [1]): 6020 nM
IC50 [2]: > 50000 nM
IC50 [3]: 30400 nM
Ratio IC50 (Plasmodium falciparum [4]): 1
Ratio IC50 (HeLa [5]): 5
IC50 (Plasmodium falciparum [6]): 13.6 nM
IC50 (Plasmodium falciparum [7]): 13 nM

C[C@H]1[C@H](OC(=O)CCN2CCOCC2)O[C@@H]2O[C@@]3(C)CC[C@H]4[C@H](C)CC[C@@H]1[C@@]24OO3
IC50 (HeLa [1]): 4800 nM
IC50 [2]: > 50000 nM
IC50 [3]: 27300 nM
Ratio IC50 (Plasmodium falciparum [4]): 1.4
Ratio IC50 (HeLa [5]): 5.7
IC50 (Plasmodium falciparum [6]): 9.02 nM
IC50 (Plasmodium falciparum [7]): 6.23 nM

Clc1ccc2c(N3CCNCC3)ccnc2c1
IC50 (HeLa [1]): 27600 nM
Ratio IC50 (Plasmodium falciparum [4]): 1.1
IC50 (Plasmodium falciparum [6]): 1640 nM
IC50 (Plasmodium falciparum [7]): 1460 nM

C[C@@H]1CC[C@H]2[C@@H](C)C(=O)O[C@@H]3O[C@@]4(C)CC[C@@H]1[C@]32OO4 [ARTEMISININ]
Ratio IC50 (Plasmodium falciparum [4]): 1

C[C@H]1[C@@H](OC(=O)CCNCCNc2ccnc3cc(Cl)ccc23)O[C@@H]2O[C@@]3(C)CC[C@H]4[C@H](C)CC[C@@H]1[C@@]24OO3
IC50 (HeLa [1]): 9470 nM
IC50 [2]: > 50000 nM
IC50 [3]: 16900 nM
Ratio IC50 (Plasmodium falciparum [4]): 1
Ratio IC50 (HeLa [5]): 1.8
IC50 (Plasmodium falciparum [6]): 20.1 nM
IC50 (Plasmodium falciparum [7]): 20.6 nM

C[C@H]1[C@@H](OC(=O)CCNCCCNc2ccnc3cc(Cl)ccc23)O[C@@H]2O[C@@]3(C)CC[C@H]4[C@H](C)CC[C@@H]1[C@@]24OO3
IC50 (HeLa [1]): 5580 nM
IC50 [2]: 21500 nM
IC50 [3]: 4710 nM
Ratio IC50 (Plasmodium falciparum [4]): 1.3
Ratio IC50 (HeLa [5]): 2.4
IC50 (Plasmodium falciparum [6]): 24.4 nM
IC50 (Plasmodium falciparum [7]): 18.7 nM

C[C@H]1[C@H](OC(=O)CCN2CCNCC2)O[C@@H]2O[C@@]3(C)CC[C@H]4[C@H](C)CC[C@@H]1[C@@]24OO3
IC50 (HeLa [1]): 8910 nM
IC50 [2]: > 50000 nM
IC50 [3]: 31000 nM
Ratio IC50 (Plasmodium falciparum [4]): 1.7
Ratio IC50 (HeLa [5]): 3.5
IC50 (Plasmodium falciparum [6]): 16 nM
IC50 (Plasmodium falciparum [7]): 9.22 nM

C[C@H]1[C@H](OC(=O)CCN2CCCC2)O[C@@H]2O[C@@]3(C)CC[C@H]4[C@H](C)CC[C@@H]1[C@@]24OO3
Ratio IC50 (Plasmodium falciparum [4]): 1
IC50 (Plasmodium falciparum [6]): 11.4 nM
IC50 (Plasmodium falciparum [7]): 11.3 nM

C[C@H]1[C@H](OC(=O)CCN(C)Cc2ccccc2)O[C@@H]2O[C@@]3(C)CC[C@H]4[C@H](C)CC[C@@H]1[C@@]24OO3
IC50 (HeLa [1]): 4480 nM
IC50 [2]: > 50000 nM
IC50 [3]: 25000 nM
Ratio IC50 (Plasmodium falciparum [4]): 1.2
Ratio IC50 (HeLa [5]): 5.6
IC50 (Plasmodium falciparum [6]): 6.16 nM
IC50 (Plasmodium falciparum [7]): 5.3 nM

CC(C)NCCC(=O)O[C@@H]1O[C@@H]2O[C@@]3(C)CC[C@H]4[C@H](C)CC[C@@H]([C@H]1C)[C@@]24OO3
IC50 (HeLa [1]): 13000 nM
Ratio IC50 (Plasmodium falciparum [4]): 1.1
IC50 (Plasmodium falciparum [6]): 18.7 nM
IC50 (Plasmodium falciparum [7]): 16.9 nM

C=CC(=O)O[C@H]1O[C@@H]2O[C@@]3(C)CC[C@H]4[C@H](C)CC[C@@H]([C@H]1C)[C@@]24OO3
IC50 (HeLa [1]): 2880 nM
IC50 [2]: 30500 nM
IC50 [3]: 9220 nM
Ratio IC50 (Plasmodium falciparum [4]): 1.6
Ratio IC50 (HeLa [5]): 6.9
IC50 (Plasmodium falciparum [6]): 12.4 nM
IC50 (Plasmodium falciparum [7]): 7.54 nM

C[C@H]1[C@@H](OC(=O)CCNCCCCCCNc2ccnc3cc(Cl)ccc23)O[C@@H]2O[C@@]3(C)CC[C@H]4[C@H](C)CC[C@@H]1[C@@]24OO3
IC50 (HeLa [1]): 370 nM
IC50 [2]: 19000 nM
IC50 [3]: 3400 nM
Ratio IC50 (Plasmodium falciparum [4]): 0.9
Ratio IC50 (HeLa [5]): 30.7
IC50 (Plasmodium falciparum [6]): 53.6 nM
IC50 (Plasmodium falciparum [7]): 55.6 nM

NCCCCNc1ccnc2cc(Cl)ccc12
IC50 (HeLa [1]): 11200 nM
Ratio IC50 (Plasmodium falciparum [4]): 4.7
IC50 (Plasmodium falciparum [6]): 2270 nM
IC50 (Plasmodium falciparum [7]): 483 nM

C[C@H]1[C@@H](OC(=O)CCN2CCN(c3ccnc4cc(Cl)ccc34)CC2)O[C@@H]2O[C@@]3(C)CC[C@H]4[C@H](C)CC[C@@H]1[C@@]24OO3
IC50 (HeLa [1]): 6580 nM
IC50 [2]: 44600 nM
IC50 [3]: 14000 nM
Ratio IC50 (Plasmodium falciparum [4]): 1
Ratio IC50 (HeLa [5]): 4.5
IC50 (Plasmodium falciparum [6]): 10 nM
IC50 (Plasmodium falciparum [7]): 10.1 nM

C[C@H]1[C@@H](O)O[C@@H]2O[C@@]3(C)CC[C@H]4[C@H](C)CC[C@@H]1[C@@]24OO3 [ARTENIMOL]
Ratio IC50 (Plasmodium falciparum [4]): 0.75
IC50 (Plasmodium falciparum [6]): 3 nM
IC50 (Plasmodium falciparum [7]): 4.1 nM

C[C@H]1[C@H](OC(=O)CCN2CCN(C)CC2)O[C@@H]2O[C@@]3(C)CC[C@H]4[C@H](C)CC[C@@H]1[C@@]24OO3
IC50 (HeLa [1]): 6550 nM
IC50 [2]: > 50000 nM
IC50 [3]: 27200 nM
Ratio IC50 (Plasmodium falciparum [4]): 1.8
Ratio IC50 (HeLa [5]): 4.1
IC50 (Plasmodium falciparum [6]): 12.6 nM
IC50 (Plasmodium falciparum [7]): 7.16 nM

NCCCNc1ccnc2cc(Cl)ccc12
IC50 (HeLa [1]): 9830 nM
Ratio IC50 (Plasmodium falciparum [4]): 5.2
IC50 (Plasmodium falciparum [6]): 1250 nM
IC50 (Plasmodium falciparum [7]): 240 nM

NCCNc1ccnc2cc(Cl)ccc12
IC50 (HeLa [1]): 7220 nM
Ratio IC50 (Plasmodium falciparum [4]): 4.9
IC50 (Plasmodium falciparum [6]): 1140 nM
IC50 (Plasmodium falciparum [7]): 231 nM

C[C@H]1[C@H](OC(=O)CCN2CCN(c3ccccc3)CC2)O[C@@H]2O[C@@]3(C)CC[C@H]4[C@H](C)CC[C@@H]1[C@@]24OO3
IC50 (HeLa [1]): 5760 nM
IC50 [2]: > 50000 nM
IC50 [3]: 27600 nM
Ratio IC50 (Plasmodium falciparum [4]): 1.3
Ratio IC50 (HeLa [5]): 4.8
IC50 (Plasmodium falciparum [6]): 7.3 nM
IC50 (Plasmodium falciparum [7]): 5.59 nM

NCCCCCCNc1ccnc2cc(Cl)ccc12
IC50 (HeLa [1]): 15700 nM
Ratio IC50 (Plasmodium falciparum [4]): 0.9
IC50 (Plasmodium falciparum [6]): 1860 nM
IC50 (Plasmodium falciparum [7]): 2160 nM

— ChEMBL document CHEMBL1770072, “Antiplasmodial and antitumor activity of dihydroartemisinin analogs derived via the aza-Michael addition reaction” (Bioorg Med Chem Lett, 2011)
